From US9302999B2, “Substituted triazoles as herbicides” (E. I. DU PONT DE NEMOURS AND COMPANY, priority 2012, dated 2016)

How the values were obtained:
Assay type in all cases: in vivo
[1] = tested on: lambsquarters (Chenopodium album); assay: Test D pre-/postemergence: lambsquarters
Summary of the method: (§1)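 Scores run from 0 (no effect) to 100 (complete control), assigned by visual comparison with controls after 14 to 21 days in a controlled environment. Both preemergence application to silt loam and postemergence application to 1- to 4-leaf plants were tested.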

[2] = tested on: deadnettle (henbit deadnettle, Lamium amplexicaule); assay: Test D pre-/postemergence: deadnettle
Summary of the method: as §1

[3] = tested on: canarygrass (Phalaris minor); assay: Test D pre-/postemergence: canarygrass
Summary of the method: as §1

[4] = tested on: field poppy (Papaver rhoeas); assay: Test D pre-/postemergence: field poppy
Summary of the method: as §1

[5] = tested on: ducksalad (Heteranthera limosa); assay: Test C flooded paddy test: ducksalad; settings: scale 0 to 100 (0 no effect, 100 complete control)
Summary of the method: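 Greenhouse plants treated at the 2-leaf stage by dosing the flood water (3 cm depth, maintained) were compared with controls after 13 to 15 days and rated 0 to 100, where 100 means complete control; a dash marks no test result.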

[6] = tested on: arrowleaf sida (Sida rhombifolia); assay: Test F pre-/postemergence: arrowleaf sida
From the text: (§2) Seeds of plant species selected from corn (Zea mays), soybean (Glycine max), velvetleaf (Abutilon theophrasti), lambsquarters (Chenopodium album), poinsettia, wild (wild poinsettia, Euphorbia heterophylla), pigweed, palmer (palmer pigweed, Amaranthus palmeri), waterhemp (common waterhemp, Amaranthus rudis), surinam grass (Brachiaria decumbens), crabgrass, Brazil (Brazilian crabgrass, Digitaria horizontalis), panicum, fall (fall panicum Panicum dichotomiflorum), crabgrass, large (large crabgrass, Digitaria sanguinalis), foxtail, giant (giant foxtail, Setaria faberii), foxtail, green (green foxtail Setaria viridis), goosegrass (Eleusine indica), ragweed (common ragweed, Ambrosia elatior), barnyardgrass (Echinochloa crus-galli), sandbur (southern sandbur, Cenchrus echinatus), arrowleaf sida (Sida rhombifolia), ryegrass, Italian (Italian ryegrass, Lolium multiflorum), dayflower, VA (Virginia (VA) dayflower, Commelina virginica), field bindweed (Convolvulus arvensis), cocklebur (common cocklebur, Xanthium strumarium), morningglory (Ipomoea coccinea), nightshade (eastern black nightshade, Solanum ptycanthum), kochia (Kochia scoparia), nutsedge, yellow (yellow nutsedge, Cyperus esculentus), johnsongrass (Sorghum halepense), smartweed (ladysthumb smartweed, Polygonum persicaria), and beggarticks (hairy beggarticks, Bidens pilosa), were planted into a silt loam soil and treated preemergence with test chemicals formulated in a non-phytotoxic solvent mixture which included a surfactant. At the same time, plants selected from these crop and weed species and also pigweed (Amaranthus retroflexus), waterhemp_RES1 (ALS/Triazine resistant common waterhemp, Amaranthus rudis) and waterhemp_RES2 (ALS/HPPD resistant common waterhemp, Amaranthus rudis) were planted in pots containing a planting medium comprising spaghnum peat moss, vermiculite, wetting agent and starter nutrients treated with postemergence applications of some of the test chemicals formulated in the same manner. Plants ranged in height from 2 to 18 cm for postemergence treatments (1- to 4-leaf stage).
(§3) Treated plants and controls were maintained in a greenhouse for 14 to 21 days, after which time all species were compared to controls and visually evaluated. Plant response ratings, summarized in Table E, are based on a scale of 0 to 100 where 0 is no effect and 100 is complete control. A dash (-) response means no test result.

corn (Zea mays) = assay: Test F pre-/postemergence: corn
From the text: as §2, §3

[7] = tested on: crabgrass, large (large crabgrass, Digitaria sanguinalis); assay: Test F pre-/postemergence: crabgrass, large; settings: Preemergence
From the text: as §2, §3

[8] = Postemergence, 31 g ai/ha, scale 0 to 100 (0 no effect, 100 complete control)
[9] = Postemergence, 62 g ai/ha, scale 0 to 100 (0 no effect, 100 complete control)
[10] = Postemergence, 125 g ai/ha, scale 0 to 100, 0 no effect, 100 complete control
[11] = Postemergence, 250 g ai/ha, scale 0 to 100 (0 no effect, 100 complete control)
[12] = Postemergence, 16 g ai/ha, scale 0 to 100
[13] = Preemergence, 31 g ai/ha, scale 0 to 100, 0 no effect, 100 complete control
[14] = Preemergence, 62 g ai/ha, scale 0 to 100
[15] = Preemergence, 125 g ai/ha, scale 0 to 100
[16] = Preemergence, 250 g ai/ha, scale 0 to 100
[17] = Preemergence, 16 g ai/ha, scale 0 to 100, 0 no effect, 100 complete control
[18] = 16 g ai/ha, scale 0 to 100, 0 no effect, 100 complete control
[19] = 31 g ai/ha, scale 0 to 100, 0 no effect, 100 complete control
[20] = Postemergence, 8 g ai/ha, scale 0 to 100
[21] = Postemergence, 31 g ai/ha, scale 0 to 100
[22] = Postemergence, 62 g ai/ha, scale 0 to 100
[23] = Postemergence, 125 g ai/ha, scale 0 to 100
[24] = Postemergence, 250 g ai/ha, scale 0 to 100

SMILES: Cc1nn(-c2ccc(C(F)(F)F)cc2)nc1Oc1ccnc(C(F)(F)F)c1 [Compound 120]
- Plant response rating: Lambsquarters [1, 8]: 98
- Plant response rating: Lambsquarters [1, 9]: 100
- Plant response rating: Lambsquarters [1, 10]: 100
- Plant response rating: Lambsquarters [1, 11]: 100
- Plant response rating, Lambsquarters [1, 12]: 95
- Plant response rating, Lambsquarters [1, 13]: 80
- Plant response rating, Lambsquarters [1, 14]: 90
- Plant response rating, Lambsquarters [1, 15]: 100
- Plant response rating, Lambsquarters [1, 16]: 100
- Plant response rating: Deadnettle [2, 8]: 90
- Plant response rating: Deadnettle [2, 9]: 90
- Plant response rating: Deadnettle [2, 10]: 100
- Plant response rating: Deadnettle [2, 11]: 100
- Plant response rating, Deadnettle [2, 12]: 30
- Plant response rating, Deadnettle [2, 17]: 0
- Plant response rating, Deadnettle [2, 13]: 85
- Plant response rating, Deadnettle [2, 14]: 100
- Plant response rating, Deadnettle [2, 15]: 100
- Plant response rating, Deadnettle [2, 16]: 100
- Plant response rating: Canarygrass [3, 8]: 5
- Plant response rating: Canarygrass [3, 9]: 20
- Plant response rating: Canarygrass [3, 10]: 90
- Plant response rating: Canarygrass [3, 11]: 95
- Plant response rating, Canarygrass [3, 12]: 0
- Plant response rating, Canarygrass [3, 17]: 0
- Plant response rating, Canarygrass [3, 13]: 90
- Plant response rating, Canarygrass [3, 14]: 100
- Plant response rating, Canarygrass [3, 15]: 100
- Plant response rating, Canarygrass [3, 16]: 100
- Plant response rating: Field Poppy [4, 8]: 100
- Plant response rating: Field Poppy [4, 9]: 100
- Plant response rating: Field Poppy [4, 10]: 100
- Plant response rating: Field Poppy [4, 11]: 100
- Plant response rating, Field Poppy [4, 12]: 100
- Plant response rating, Field Poppy [4, 17]: 0
- Plant response rating, Field Poppy [4, 13]: 80
- Plant response rating, Field Poppy [4, 14]: 80
- Plant response rating, Field Poppy [4, 15]: 100
- Plant response rating, Field Poppy [4, 16]: 100
- Plant response rating, Ducksalad ([5]; Flood (flooded paddy test), 125 g ai/ha, visual rating after 13 to 15 days): 80
- Plant response rating, Ducksalad ([5]; Flood (flooded paddy test), 250 g ai/ha, visual rating after 13 to 15 days): 85
- Plant response rating, Ducksalad ([5]; Flood, 62 g ai/ha): 70

SMILES: COc1nn(-c2cccc(F)c2)nc1Cc1ccnc(C(F)(F)F)c1 [Compound 139]
- Plant response rating, Arrowleaf Sida [6, 17]: 0
- Plant response rating, Arrowleaf Sida [6, 13]: 0
- Plant response rating, Arrowleaf Sida [6, 14]: 0
- Plant response rating, Arrowleaf Sida [6, 15]: 0
- Plant response rating, Arrowleaf Sida [6, 16]: 0
- Plant response rating, Corn (corn (Zea mays); [17]): 0
- Plant response rating, Corn (corn (Zea mays); [13]): 0
- Plant response rating, Corn (corn (Zea mays); [14]): 0
- Plant response rating, Corn (corn (Zea mays); [15]): 0
- Plant response rating, Corn (corn (Zea mays); [16]): 5
- Plant response rating, Crabgrass, Large [7, 18]: 30
- Plant response rating, Crabgrass, Large [7, 19]: 95
- Plant response rating, Crabgrass, Large ([7]; 62 g ai/ha, scale 0 to 100): 95
- Plant response rating, Crabgrass, Large ([7]; 125 g ai/ha, scale 0 to 100): 100
- Plant response rating, Crabgrass, Large ([7]; 250 g ai/ha, scale 0 to 100): 100

SMILES: Cc1nn(-c2ccnc(Cl)c2)nc1Cc1ccnc(C(F)(F)F)c1 [Compound 141]
- Plant response rating, Arrowleaf Sida [6, 20]: 40
- Plant response rating, Arrowleaf Sida [6, 12]: 50
- Plant response rating, Arrowleaf Sida [6, 21]: 60
- Plant response rating, Arrowleaf Sida [6, 22]: 70
- Plant response rating, Arrowleaf Sida [6, 23]: 75
- Plant response rating, Corn (corn (Zea mays); [20]): 15
- Plant response rating, Corn (corn (Zea mays); [12]): 15
- Plant response rating, Corn (corn (Zea mays); [21]): 20
- Plant response rating, Corn (corn (Zea mays); [22]): 20
- Plant response rating, Corn (corn (Zea mays); [23]): 30

SMILES: Cc1nn(-c2ccc(F)cc2F)nc1Oc1ccnc(C(F)(F)F)c1 [Compound 146]
- Plant response rating, Arrowleaf Sida [6, 17]: 0
- Plant response rating, Arrowleaf Sida [6, 13]: 0
- Plant response rating, Arrowleaf Sida [6, 14]: 0
- Plant response rating, Arrowleaf Sida [6, 15]: 0
- Plant response rating, Arrowleaf Sida [6, 16]: 10
- Plant response rating, Corn (corn (Zea mays); [17]): 0
- Plant response rating, Corn (corn (Zea mays); [13]): 0
- Plant response rating, Corn (corn (Zea mays); [14]): 0
- Plant response rating, Corn (corn (Zea mays); [15]): 0
- Plant response rating, Corn (corn (Zea mays); [16]): 0
- Plant response rating, Crabgrass, Large [7, 18]: 0
- Plant response rating, Crabgrass, Large [7, 19]: 75
- Plant response rating, Crabgrass, Large ([7]; 62 g ai/ha, scale 0 to 100): 98
- Plant response rating, Crabgrass, Large ([7]; 125 g ai/ha, scale 0 to 100): 98
- Plant response rating, Crabgrass, Large ([7]; 250 g ai/ha, scale 0 to 100): 100

SMILES: CCc1nn(-c2ccc(F)cc2)nc1Cc1ccnc(C(F)(F)F)c1 [Compound 154]
- Plant response rating, Arrowleaf Sida [6, 17]: 0
- Plant response rating, Arrowleaf Sida [6, 13]: 0
- Plant response rating, Arrowleaf Sida [6, 14]: 0
- Plant response rating, Arrowleaf Sida [6, 15]: 0
- Plant response rating, Arrowleaf Sida [6, 16]: 0
- Plant response rating, Corn (corn (Zea mays); [17]): 0
- Plant response rating, Corn (corn (Zea mays); [13]): 0
- Plant response rating, Corn (corn (Zea mays); [14]): 0
- Plant response rating, Corn (corn (Zea mays); [15]): 5
- Plant response rating, Corn (corn (Zea mays); [16]): 5
- Plant response rating, Crabgrass, Large [7, 18]: 50
- Plant response rating, Crabgrass, Large [7, 19]: 98
- Plant response rating, Crabgrass, Large ([7]; 62 g ai/ha, scale 0 to 100): 100
- Plant response rating, Crabgrass, Large ([7]; 125 g ai/ha, scale 0 to 100): 100
- Plant response rating, Crabgrass, Large ([7]; 250 g ai/ha, scale 0 to 100): 100

SMILES: CCc1nn(-c2ccc(C(F)(F)F)cc2)nc1Oc1ccnc(C(F)(F)F)c1 [Compound 169]
- Plant response rating, Arrowleaf Sida [6, 24]: 50
- Plant response rating, Arrowleaf Sida [6, 12]: 20
- Plant response rating, Arrowleaf Sida [6, 21]: 20
- Plant response rating, Arrowleaf Sida [6, 22]: 20
- Plant response rating, Arrowleaf Sida [6, 23]: 30
- Plant response rating, Arrowleaf Sida [6, 17]: 0
- Plant response rating, Arrowleaf Sida [6, 13]: 0
- Plant response rating, Arrowleaf Sida [6, 14]: 0
- Plant response rating, Arrowleaf Sida [6, 15]: 5
- Plant response rating, Arrowleaf Sida [6, 16]: 5
- Plant response rating, Corn (corn (Zea mays); [24]): 10
- Plant response rating, Corn (corn (Zea mays); [12]): 5
- Plant response rating, Corn (corn (Zea mays); [21]): 5
- Plant response rating, Corn (corn (Zea mays); [22]): 10
- Plant response rating, Corn (corn (Zea mays); [23]): 10
- Plant response rating, Corn (corn (Zea mays); [17]): 0
- Plant response rating, Corn (corn (Zea mays); [13]): 0
- Plant response rating, Corn (corn (Zea mays); [14]): 0
- Plant response rating, Corn (corn (Zea mays); [15]): 0
- Plant response rating, Corn (corn (Zea mays); [16]): 0
- Plant response rating, Crabgrass, Large [7, 18]: 98
- Plant response rating, Crabgrass, Large [7, 19]: 98
- Plant response rating, Crabgrass, Large ([7]; 62 g ai/ha, scale 0 to 100): 100
- Plant response rating, Crabgrass, Large ([7]; 125 g ai/ha, scale 0 to 100): 100
- Plant response rating, Crabgrass, Large ([7]; 250 g ai/ha, scale 0 to 100): 100
